Reference: ChEMBL document CHEMBL1201862, “PubChem BioAssay data set” (2004)
Activity calls are given as the source filed them.

Experiments:
Type in all cases: functional
INS1 = experiment: INS-1E survival protection against cytokine death – cell-based, luminescence, retest, dose response (AID 449756); conditions: Rattus norvegicus;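 further: cell death triggered by IL-1 beta plus TNF-alpha plus IFN-gamma mixture; protective hits raise ATP signal compared with cytokine alone wells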
[1] = molecular target: T1, Sentrin-specific protease 6 (Homo sapiens, UniProt Q9GZR1);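 further: Luminescence-based dose-response confirmatory assay of SENP6 inhibition, following up an ultra-high-throughput screen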
T1 sequence (Q9GZR1 whole entry): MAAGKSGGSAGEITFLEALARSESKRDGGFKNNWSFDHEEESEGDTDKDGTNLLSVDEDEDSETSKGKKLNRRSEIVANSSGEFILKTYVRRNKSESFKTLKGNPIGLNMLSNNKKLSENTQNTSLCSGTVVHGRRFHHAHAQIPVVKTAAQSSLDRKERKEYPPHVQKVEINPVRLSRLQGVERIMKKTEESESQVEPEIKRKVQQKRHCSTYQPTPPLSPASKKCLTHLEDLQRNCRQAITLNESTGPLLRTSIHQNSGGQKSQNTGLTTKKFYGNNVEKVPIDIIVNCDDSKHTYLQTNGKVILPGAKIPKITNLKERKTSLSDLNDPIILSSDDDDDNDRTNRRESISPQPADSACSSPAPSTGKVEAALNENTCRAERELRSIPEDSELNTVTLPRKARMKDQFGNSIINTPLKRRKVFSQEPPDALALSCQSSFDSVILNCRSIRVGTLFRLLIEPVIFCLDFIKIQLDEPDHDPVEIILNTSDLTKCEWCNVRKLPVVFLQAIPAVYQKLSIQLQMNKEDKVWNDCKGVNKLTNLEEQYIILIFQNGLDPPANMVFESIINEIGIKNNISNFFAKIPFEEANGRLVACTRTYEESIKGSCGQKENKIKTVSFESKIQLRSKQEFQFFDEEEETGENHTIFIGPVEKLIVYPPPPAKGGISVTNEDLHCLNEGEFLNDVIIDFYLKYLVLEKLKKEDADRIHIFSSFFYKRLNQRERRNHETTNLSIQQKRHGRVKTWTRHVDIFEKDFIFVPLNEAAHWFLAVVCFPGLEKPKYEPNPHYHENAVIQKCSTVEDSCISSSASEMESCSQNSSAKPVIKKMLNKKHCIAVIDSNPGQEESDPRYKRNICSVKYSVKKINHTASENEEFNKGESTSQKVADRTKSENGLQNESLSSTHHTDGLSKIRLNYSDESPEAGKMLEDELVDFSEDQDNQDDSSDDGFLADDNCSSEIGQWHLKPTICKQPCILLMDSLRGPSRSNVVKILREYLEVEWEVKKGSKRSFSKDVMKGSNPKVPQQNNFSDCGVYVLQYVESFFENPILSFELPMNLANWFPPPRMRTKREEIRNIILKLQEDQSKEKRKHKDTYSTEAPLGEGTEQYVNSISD

[2] = molecular target: T2, Sentrin-specific protease 7 (Homo sapiens, UniProt Q9BQF6);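 further: Luminescence-based dose-response confirmation of ultra-high-throughput screening hits, measuring inhibition of SENP7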
T2 sequence (Q9BQF6 whole entry): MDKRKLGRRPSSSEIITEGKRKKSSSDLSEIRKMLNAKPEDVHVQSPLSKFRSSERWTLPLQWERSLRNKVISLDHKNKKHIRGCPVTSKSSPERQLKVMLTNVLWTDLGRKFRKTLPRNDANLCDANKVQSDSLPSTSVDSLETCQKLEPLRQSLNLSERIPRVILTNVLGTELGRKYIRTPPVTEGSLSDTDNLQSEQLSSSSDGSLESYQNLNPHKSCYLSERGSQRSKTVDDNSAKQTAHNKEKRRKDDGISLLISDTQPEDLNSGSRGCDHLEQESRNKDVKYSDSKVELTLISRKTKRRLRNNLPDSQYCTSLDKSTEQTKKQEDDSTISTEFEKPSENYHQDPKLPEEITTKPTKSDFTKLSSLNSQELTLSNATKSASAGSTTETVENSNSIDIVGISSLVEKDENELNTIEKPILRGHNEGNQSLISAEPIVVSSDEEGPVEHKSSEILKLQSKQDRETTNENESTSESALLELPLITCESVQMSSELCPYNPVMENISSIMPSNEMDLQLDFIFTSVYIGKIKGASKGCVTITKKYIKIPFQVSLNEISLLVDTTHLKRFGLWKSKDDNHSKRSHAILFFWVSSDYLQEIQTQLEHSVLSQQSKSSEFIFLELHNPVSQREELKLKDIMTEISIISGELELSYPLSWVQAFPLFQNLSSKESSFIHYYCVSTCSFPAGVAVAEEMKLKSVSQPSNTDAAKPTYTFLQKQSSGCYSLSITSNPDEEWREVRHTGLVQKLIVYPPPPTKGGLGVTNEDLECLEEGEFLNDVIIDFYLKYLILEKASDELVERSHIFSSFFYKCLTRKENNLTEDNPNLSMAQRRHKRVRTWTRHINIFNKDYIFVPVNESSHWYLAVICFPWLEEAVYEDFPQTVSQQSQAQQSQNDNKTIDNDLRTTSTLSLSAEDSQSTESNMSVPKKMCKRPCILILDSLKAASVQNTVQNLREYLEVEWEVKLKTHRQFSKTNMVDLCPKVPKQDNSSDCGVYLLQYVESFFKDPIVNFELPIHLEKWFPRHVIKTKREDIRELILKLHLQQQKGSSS

[3] = Counterscreen for AddAB inhibitors: absorbance-based bacterial cell-based high throughput dose response assay for inhibitors of bacterial viability. [Related pubchem assays (depositor defined):AID435030, AID449728, AID449731, AID488942, AID488955, AID488956]

IC50 [1] | IC50 [2] | Structure (SMILES) | AC50 (INS1) | IC50 [3]
 |  | Cn1nc(-c2ccc(Cl)cc2)nc2c(=O)n(C)c(=O)nc1-2 | 0.441 µM (active) | 
4.59 µM (active) | 7.78 µM (active) | NS(=O)(=O)c1ccc(NC(=O)COC(=O)c2ccc([N+](=O)[O-])s2)cc1 |  | 
6.78 µM (active) | 19.9 µM (active) | CCCCNc1cc(NC(C)=O)cc2cc(OC)c(OC)cc12 |  | 
 |  | COc1ccc(C(NC(=O)C(C)C)c2ccc3cccnc3c2O)cc1 (stereo not drawn) | 0.65 µM (active) | > 119 µM (inactive)
 |  | O=C(Cc1ccc([N+](=O)[O-])cc1)N/N=C/c1ccc([N+](=O)[O-])o1 |  | 16.6 µM (inactive)
